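48-hour exposure; five concentrations; linearly interpolated endpoints. Here, GI50 denotes the concentration required for 50% inhibition of growth.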 The source made the active and inactive calls. Rule as the data show it: active = GI50 up to about 1.1 µM and inactive = higher.
Columns and labels:
Experiment in all cases: inhibition of tumour cell growth, NCI panel, 48 h
A498 = tested on: A498
ACHN = tested on: ACHN
BT-549 = tested on: BT-549
CCRF-CEM = tested on: CCRF-CEM
HCT-15 = tested on: HCT-15
HL-60 = tested on: HL-60
HOP-62 = tested on: HOP-62
Hs-578T = tested on: Hs-578T
IGROV-1 = tested on: IGROV-1
KM12 = tested on: KM12
M14 = tested on: M14
MDA-MB-435 = tested on: MDA-MB-435
NCI-H23 = tested on: NCI-H23
OVCAR-4 = tested on: OVCAR-4
OVCAR-5 = tested on: OVCAR-5
OVCAR-8 = tested on: OVCAR-8
PC-3 = tested on: PC-3
SW-620 = tested on: SW-620
TK-10 = tested on: TK-10
XF498 = tested on: XF498

SMILES | GI50 (A498) | GI50 (ACHN) | GI50 (BT-549) | GI50 (CCRF-CEM) | GI50 (HCT-15) | GI50 (HL-60) | GI50 (HOP-62) | GI50 (Hs-578T) | GI50 (IGROV-1) | GI50 (KM12) | GI50 (M14) | GI50 (MDA-MB-435) | GI50 (NCI-H23) | GI50 (OVCAR-4) | GI50 (OVCAR-5) | GI50 (OVCAR-8) | GI50 (PC-3) | GI50 (SW-620) | GI50 (TK-10) | GI50 (XF498)
O=C(O)CC(Nc1ccccc1)C(=O)O (stereo unspecified) | > 100 µM (inactive) | > 100 µM (inactive) | > 100 µM (inactive) | > 100 µM (inactive) | > 100 µM | > 100 µM (inactive) | > 100 µM (inactive) | > 100 µM (inactive) | > 100 µM (inactive) | > 100 µM (inactive) | > 100 µM (inactive) | > 100 µM (inactive) | > 100 µM (inactive) | > 100 µM (inactive) | > 100 µM (inactive) | > 100 µM (inactive) | > 100 µM (inactive) | > 100 µM (inactive) | > 100 µM (inactive) | –
CCOc1cc(NC(C)=O)ccc1C(=O)NN1C(=O)C(Cl)C1c1ccccc1 (stereo unspecified) | 17.4 µM (inactive) | 16.2 µM (inactive) | 11.4 µM (inactive) | 2.67 µM (inactive) | 16.1 µM | 14.1 µM (inactive) | 20.5 µM (inactive) | 21.2 µM (inactive) | 3.92 µM (inactive) | 17.3 µM (inactive) | 12.4 µM (inactive) | 11.5 µM (inactive) | 14.3 µM (inactive) | 13.5 µM (inactive) | 17.4 µM (inactive) | 20.9 µM (inactive) | 14 µM (inactive) | 12.4 µM (inactive) | 16.6 µM (inactive) | –
O=C(CCSC1=NCCCN1)c1ccc(F)cc1 | 20.6 µM (inactive) | 15.5 µM (inactive) | 18.2 µM (inactive) | 2.61 µM (inactive) | 13.1 µM | 10.7 µM (inactive) | 27.8 µM (inactive) | 22 µM (inactive) | 18 µM (inactive) | 19.7 µM (inactive) | 15.6 µM (inactive) | 18.5 µM (inactive) | 19.4 µM (inactive) | 21.6 µM (inactive) | 15 µM (inactive) | 31.9 µM (inactive) | 14.9 µM (inactive) | 2.86 µM (inactive) | 15.8 µM (inactive) | –
Cc1ccc2c3c1O[C@H]1c4nc5ccccc5cc4C[C@@]4(O)[C@@H](C2)N(CC2CC2)CC[C@]314 | 16.5 µM (inactive) | 10.4 µM (inactive) | 11.2 µM (inactive) | 1.39 µM (inactive) | 0.873 µM | 9.23 µM (inactive) | 12.1 µM (inactive) | 8.69 µM (inactive) | 17.5 µM (inactive) | 11.1 µM (inactive) | 12.5 µM (inactive) | 11.4 µM (inactive) | 20.6 µM (inactive) | 13.4 µM (inactive) | 12.7 µM (inactive) | 10.7 µM (inactive) | 3.95 µM (inactive) | 4.29 µM (inactive) | 29.6 µM (inactive) | –
Cc1ccc(C(=O)C(C)N)cc1C (stereo unspecified) | > 100 µM (inactive) | > 100 µM (inactive) | – | > 100 µM (inactive) | – | – | > 100 µM (inactive) | – | > 100 µM (inactive) | > 100 µM (inactive) | > 100 µM (inactive) | – | > 100 µM (inactive) | > 100 µM (inactive) | – | > 100 µM (inactive) | – | > 100 µM (inactive) | > 100 µM (inactive) | 41.5 µM (inactive)
CCCc1nc(Cl)nc(Cl)c1Cl | 2.87 µM (inactive) | 0.611 µM (active) | 0.0227 µM (active) | < 0.0264 µM (active) | 0.0796 µM | 0.189 µM (active) | 0.908 µM (active) | 0.475 µM (active) | 0.807 µM (active) | 0.543 µM (active) | 0.336 µM (active) | 0.422 µM (active) | 0.45 µM (active) | 0.0871 µM (active) | 0.817 µM (active) | 0.456 µM (active) | 0.438 µM (active) | 0.0675 µM (active) | 0.762 µM (active) | –
OC1(c2ccc3ccccc3c2)c2ccc3ccccc3c2C2=NCCN21 (stereo unspecified) | > 100 µM (inactive) | > 100 µM (inactive) | > 100 µM (inactive) | > 100 µM (inactive) | > 100 µM | > 100 µM (inactive) | 18.5 µM (inactive) | 24.5 µM (inactive) | > 100 µM (inactive) | > 100 µM (inactive) | > 100 µM (inactive) | > 100 µM (inactive) | > 100 µM (inactive) | 22.3 µM (inactive) | > 100 µM (inactive) | 23.3 µM (inactive) | > 100 µM (inactive) | 94.8 µM (inactive) | 28.3 µM (inactive) | –
CC(=O)c1cc2ccccc2oc1=O [3-ACETYLCOUMARIN] | > 100 µM (inactive) | > 100 µM (inactive) | > 100 µM (inactive) | > 100 µM (inactive) | > 100 µM | > 100 µM (inactive) | > 100 µM (inactive) | > 100 µM (inactive) | > 100 µM (inactive) | > 100 µM (inactive) | > 100 µM (inactive) | > 100 µM (inactive) | > 100 µM (inactive) | > 100 µM (inactive) | > 100 µM (inactive) | > 100 µM (inactive) | > 100 µM (inactive) | > 100 µM (inactive) | > 100 µM (inactive) | –
